Square brackets hold non-standard residues; d marks the D form. Peptide text beside a SMILES is read from it. Cha = N[C@@H](CC1CCCCC1)C(=O)O; Ahx = NCCCCCC(=O)O
Target: Neuropeptide Y receptor type 2 (Oryctolagus cuniculus)
Assay: Compound was evaluated for its inhibitory activity against Y2 receptor of rabbit kidney membrane

Q: With `CC[C@H](C)[C@H](NC(=O)[C@H](Cc1ccc(O)cc1)NC(=O)[C@H](Cc1c[nH]cn1)NC(=O)[C@H](CCCN=C(N)N)NC(C)=O)C(=O)N[C@@H](CC(N)=O)C(=O)N[C@@H](CC1CCCCC1)C(=O)N[C@@H](CC1CCCCC1)C(=O)N[C@H](C(=O)N[C@@H](CCCN=C(N)N)C(=O)N[C@@H](CCC(N)=O)C(=O)N[C@@H](CCCN=C(N)N)C(=O)N[C@@H](Cc1ccc(O)cc1)C(=O)O)[C@@H](C)O` [Ac-RHYIN-(Cha)-(Cha)-TRQRY] (Ac-RHYIN[Cha][Cha]TRQRY-OH) as the molecule, how does the IC50 read?
A: 8 nM

Q: With `CC[C@H](C)[C@H](NC(=O)[C@H](Cc1ccc(O)cc1)NC(=O)[C@H](Cc1c[nH]cn1)NC(=O)[C@H](CCCN=C(N)N)NC(C)=O)C(=O)N[C@@H](CC(N)=O)C(=O)N[C@@H](CC1CCCCC1)C(=O)N[C@H](C(=O)N[C@H](C(=O)N[C@@H](CCCN=C(N)N)C(=O)N[C@@H](CCC(N)=O)C(=O)N[C@@H](CCCN=C(N)N)C(=O)N[C@@H](Cc1ccc(O)cc1)C(=O)O)[C@@H](C)O)[C@@H](C)CC` [Ac-RHYIN-(Cha)-ITRQRY] (Ac-RHYIN[Cha]ITRQRY-OH) as the molecule, how does the IC50 read?
A: 16 nM

Q: For `CC[C@H](C)[C@H](NC(=O)[C@H](Cc1ccc(O)cc1)NC(=O)[C@H](Cc1cnc[nH]1)NC(=O)[C@H](CCCNC(=N)N)NC(=O)CCCCCNC(=O)[C@H](CCCCN)NC(=O)[C@H](CO)NC(=O)[C@@H]1CCCN1C(=O)[C@@H](N)Cc1ccc(O)cc1)C(=O)N[C@@H](CC(N)=O)C(=O)N[C@@H](CC(C)C)C(=O)N[C@H](C(=O)N[C@H](C(=O)N[C@@H](CCCNC(=N)N)C(=O)N[C@@H](CCC(N)=O)C(=O)N[C@@H](CCCNC(=N)N)C(=O)N[C@@H](Cc1ccc(O)cc1)C(N)=O)[C@@H](C)O)[C@@H](C)CC` [Neuropeptide Y analogue] (H-YPSK[Ahx]RHYINLITRQRY-NH2), which IC50 is on record?
A: 180 nM
